Source: publication PMC11500415, “Chemical inhibition of stomatal differentiation by perturbation of the master-regulatory bHLH heterodimer via an ACT-Like domain” (Nature Communications, 2024)
“And” between values parts separate entries of the source, which are not always exact repeats. Equal values may be shown once. Read-outs that look alike come from different tables or passages of the source.

Molecular target: T1, MUTE_ACTL (Arabidopsis thaliana, UniProt Q9M8K6)
T1 construct: MUTE-ACTL (114-202); made in house; host or cells: E. coli BL21
T1 sequence (Q9M8K6 114-202): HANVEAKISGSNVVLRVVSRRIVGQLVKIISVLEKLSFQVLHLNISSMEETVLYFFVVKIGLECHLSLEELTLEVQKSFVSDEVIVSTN
Experiment: BLI direct binding
Set-up: species or system A. thaliana
Description: A. thaliana SCRM (1-494), ΔNSPCH (98-364), MUTE (1-202), ΔNFAMA (190-414), MUTEΔC (1-114), MUTER133A_R134A, MUTEE162A_E163A, MUTER133A_R134A_E162A_E163A, SCRM-ACTL (405-494), MUTE-ACTL (114-202), SPCH-ACTL (285-364), FAMA-ACTL (306-414), MUTE_ACTLR133A_R134A, MUTE_ACTLE162A_E163A, MUTE_ACTLR133A_R134A_E162A_E163A were cloned into pGEX-4T-1 vector with an N-terminal GST tag and a thrombin cleavage sequence. For protein expression, the constructs were transformed into E. coli strain BL21. For each transformant, a single colony was selected and incubated in 10 ml LB liquid media. The overnight-incubated E. coli suspensions were transferred to 1 L LB medium and incubated at 37 °C for around 2 h until the OD600 reached 0.4–0.6. The isopropyl β-D-1-thiogalactopyranoside ([…] of final concentration) was added to the cultures and the strains were incubated at 22 °C for a further 18 h. GST-fused proteins were purified using glutathione agarose resin. The soluble portion of the cell lysate was loaded onto a GST-Sepharose column. Nonspecifically bound proteins were removed by washing the column with 20 mM Tris pH 8.0, 200 mM NaCl. The bound GST-fused protein was eluted with 10 mm glutathione and 20 mM Tris pH 8.0, 200 mM NaCl. The GST-fused proteins were exchanged with phosphate-buffered saline buffer, and then the solution was treated with 50 μg of thrombin for 10–12 h at 16 ^οC. The GST portion of the protein was cleaved during thrombin digestion, and then the whole solution was reloaded onto the glutathione S-transferase column to obtain pure protein. The purified proteins were further purified by gel filtration on a Superdex-200 (GE) column using fast protein liquid chromatography and phosphate buffer (pH 7.2) as the eluent. The purity of the protein was checked by SDS-PAGE. For detailed lists of oligo DNA and plasmid information, see Supplementary Tables 5, 6, respectively.
The binding affinities of SCRM to MUTE / MUTER133A_R134A / MUTEE162A_E163A / MUTER133A_R134A_E162A_E163A in presence and absence of Stomidazolone (3) and its analogues (AYSJ1059 (5) and AYSJ1061 (6)), and Stomidazolone / AYSJ1059 / AYSJ1061 interactions with GST-tagged SCRM, MUTE, SPCH, FAMA, MUTE ΔACTL, MUTE_ACTL, SCRM_ACTL, SPCH_ACTL and FAMA_ACTL, MUTER133A_134A, MUTEE162A_E163A, MUTER133A_R134A_E162A_E163A were measured using the Octet Red96 system (ForteBio, Pall Life Sciences) following the manufacturer’s protocols. The optical probes coated with anti-GST were first loaded with 500 nM GST tagged proteins before kinetic binding analyses. The experiment was performed in 96-well plates maintained at 30 °C. Each well was loaded with 200 μL reaction volume for the experiment. The binding buffer used in these experiments contained 1× PBS supplemented with 2% DMSO, 0.02% Tween20. […] There was no binding of the analytes to the unloaded probes as shown by the control wells. Binding kinetics to all seven concentrations of the analytes were measured simultaneously using default parameters on the instrument. The data were analyzed using the Octet data analysis software. The association and dissociation curves were fit with the 1:1 homogeneous ligand model. The kobs (observed rate constant) values were used to calculate Kd, with steady-state analysis of the direct binding. See Supplementary Table 3 for details.

[1] = MUTE_ACTL on Anti-GST sensor, Stomid 3.12 µM, rep-1, rep-2
[2] = MUTE_ACTL on Anti-GST sensor, Stomid 6.25 µM, rep-1, rep-2

In the case of O=C1C(c2ccccc2)=NC(NS(=O)(=O)c2ccccc2)(c2ccccc2)N1S(=O)(=O)c1ccccc1 (stereo not drawn) [Stomidazolone], the Kd (BLI steady state, MUTE_ACTL, read-out: KD (SS)) is reported as 13.1 ± 1.3 µM, the Response (BLI, GST-MUTE_ACTL on Anti-GST sensor, Stomid 3.12 µM) is reported as 0.126 and 0.163 and the Response (BLI, GST-MUTE_ACTL on Anti-GST sensor, Stomid 6.25 µM) is reported as 0.271 and 0.242. The Response (BLI, GST-MUTE_ACTL on Anti-GST sensor, Stomid 12.5 µM) was 0.425 and 0.391, the Response (BLI, GST-MUTE_ACTL on Anti-GST sensor, Stomid 25 µM) was 0.524 and 0.486 and the Response (BLI, GST-MUTE_ACTL on Anti-GST sensor, Stomid 50 µM) was 0.535 and 0.563. For the same compound, the Response (BLI, GST-MUTE_ACTL on Anti-GST sensor, Stomid 100 µM) was 0.611 and 0.632, the Response (BLI, GST-MUTE_ACTL on Anti-GST sensor, Stomid 200 µM) was 0.625 and 0.645 and the RMax (BLI, sensor at Stomid 3.12 µM) was 0.132 and 0.165. The Kd (BLI, sensor at Stomid 3.12 µM, read-out: KD) was 11.7 µM, the RMax (BLI, sensor at Stomid 6.25 µM) was 0.28 and 0.245 and the “kobs” value (BLI, sensor at Stomid 6.25 µM) was 0.00155 s⁻¹ and 0.00133 s⁻¹. The “kon” value (BLI, sensor at Stomid 6.25 µM) was 4070 M⁻¹ s⁻¹, the Kd (BLI, sensor at Stomid 6.25 µM, read-out: KD) was 11.9 µM and the RMax (BLI, sensor at Stomid 12.5 µM) was 0.435 and 0.4. The “Req/Rmax(%)” value (BLI, sensor at Stomid 12.5 µM) was 49% and 87.1%, the “kdis” value (BLI, sensor at Stomid 12.5 µM) was 0.0482 s⁻¹ and the “kon” value (BLI, sensor at Stomid 12.5 µM) was 4050 M⁻¹ s⁻¹. The Kd (BLI, sensor at Stomid 12.5 µM, read-out: KD) was 11.9 µM, the RMax (BLI, sensor at Stomid 25 µM) was 0.53 and 0.49 and the “Req/Rmax(%)” value (BLI, sensor at Stomid 25 µM) was 61.4% and 83.8%. For the same compound, the “kdis” value (BLI, sensor at Stomid 25 µM) was 0.0488 s⁻¹, the “kobs” value (BLI, sensor at Stomid 25 µM) was 0.00162 s⁻¹ and 0.00294 s⁻¹ and the “kon” value (BLI, sensor at Stomid 25 µM) was 4070 M⁻¹ s⁻¹. For the same compound, the Kd (BLI, sensor at Stomid 25 µM, read-out: KD) was 11.8 µM and 12 µM, the RMax (BLI, sensor at Stomid 50 µM) was 0.545 and 0.565 and the “Req/Rmax(%)” value (BLI, sensor at Stomid 50 µM) was 71.3%. The “kdis” value (BLI, sensor at Stomid 50 µM) was 0.0473 s⁻¹, the “kon” value (BLI, sensor at Stomid 50 µM) was 4010 M⁻¹ s⁻¹ and the Kd (BLI, sensor at Stomid 50 µM, read-out: KD) was 11.9 µM and 11.8 µM. The RMax (BLI, sensor at Stomid 100 µM) was 0.621 and 0.64, the “Req/Rmax(%)” value (BLI, sensor at Stomid 100 µM) was 98.7% and the “kdis” value (BLI, sensor at Stomid 100 µM) was 0.0476 s⁻¹. For the same compound, the “kon” value (BLI, sensor at Stomid 100 µM) was 4080 M⁻¹ s⁻¹, the Kd (BLI, sensor at Stomid 100 µM, read-out: KD) was 12.1 µM and 11.7 µM and the RMax (BLI, sensor at Stomid 200 µM) was 0.63 and 0.655. The “Req/Rmax(%)” value (BLI, sensor at Stomid 200 µM) was 100%, the “kdis” value (BLI, sensor at Stomid 200 µM) was 0.0474 s⁻¹ and the “kobs” value (BLI, sensor at Stomid 200 µM) was 0.0329 s⁻¹ and 0.0251 s⁻¹. The “kon” value (BLI, sensor at Stomid 200 µM) was 4070 M⁻¹ s⁻¹, the Kd (BLI, sensor at Stomid 200 µM, read-out: KD) was 12 µM and 11.6 µM and the Kd (BLI, MUTE_ACTL, read-out: KD) was 12.2 ± 2.1 µM. For the same compound, the RMax [1] was 0.132 and 0.165, the Response [1] was 0.126 and 0.163 and the Kd (MUTE_ACTL on Anti-GST sensor, Stomid 3.12 µM, rep-1, rep-2, read-out: KD) was 11.7 µM. The RMax [2] was 0.28 and 0.245, the Response [2] was 0.271 and 0.242 and the “kobs” value [2] was 0.00155 s⁻¹ and 0.00133 s⁻¹. The “kon” value [2] was 4070 M⁻¹ s⁻¹, the Kd (MUTE_ACTL on Anti-GST sensor, Stomid 6.25 µM, rep-1, rep-2, read-out: KD) was 11.9 µM and the RMax (MUTE_ACTL on Anti-GST sensor, Stomid 12.5 µM, rep-1, rep-2) was 0.4 and 0.435.
